Data as given in patent US8273527B2, “Viral variants” (priority 1999, dated 2012).

How the values were obtained:
[1] = tested on: HBV; experiment: FCV prophylaxis liver transplantation trial (response pre-OLT, HBV recurrence post-OLT); assay type: in vivo, patients
From the text: The clinical details of the FCV prophylaxis liver transplantation protocol as previously described (19). Briefly, the aim of the study was to compare the safety and efficacy of oral FCV and IV penciclovir in reducing the risk of hepatitis B re-infection post-OLT in liver transplant patients. The study design was a multicentre, randomized, part double-blind, part placebo controlled trial in patients with end stage liver disease requiring OLT. Patients with HBV DNA levels more than 90 pg/ml at study entry (by hybridization) [high replicators] were treated with both FCV and HBIG post-OLT. These high replicators were treated with FCV (500 mg tds) to reduce HBV DNA levels prior to OLT. Famciclovir treatment was continued for 12 months post-OLT. An untreated control group of patients with HBV DNA levels less than 90 pg/ml [low replicators] at study entry were treated with HBIG alone post-OLT. In the original study, thirty six patients underwent OLT, and of these the clinical and virological outcome of twenty-two of the FCV treated patients has recently been presented (17 Manns).
Twenty six patients who had HBV levels more than 90 pg/ml at study entry (high HBV replicator [HR]) were treated with FCV pre-OLT and those patients who responded were then treated with HBIG plus FCV post-OLT. […]

[2] = tested on: duck HBV virus; conditions: oral, in vivo; cited from earlier work
[3] = tested on: HBV; conditions: one patient with severe hepatitis B following OLT; cited from earlier work
[4] = tested on: HBV; conditions: in vitro; cited from earlier work
[5] = tested on: duck HBV; conditions: in vitro; cited from earlier work
[6] = target: HBV DNA polymerase-reverse transcriptase (Hepatitis B virus genotype D subtype ayw, UniProt P03156); conditions: in vitro; cited from earlier work
Sequence of HBV DNA polymerase-reverse transcriptase (P03156 whole entry): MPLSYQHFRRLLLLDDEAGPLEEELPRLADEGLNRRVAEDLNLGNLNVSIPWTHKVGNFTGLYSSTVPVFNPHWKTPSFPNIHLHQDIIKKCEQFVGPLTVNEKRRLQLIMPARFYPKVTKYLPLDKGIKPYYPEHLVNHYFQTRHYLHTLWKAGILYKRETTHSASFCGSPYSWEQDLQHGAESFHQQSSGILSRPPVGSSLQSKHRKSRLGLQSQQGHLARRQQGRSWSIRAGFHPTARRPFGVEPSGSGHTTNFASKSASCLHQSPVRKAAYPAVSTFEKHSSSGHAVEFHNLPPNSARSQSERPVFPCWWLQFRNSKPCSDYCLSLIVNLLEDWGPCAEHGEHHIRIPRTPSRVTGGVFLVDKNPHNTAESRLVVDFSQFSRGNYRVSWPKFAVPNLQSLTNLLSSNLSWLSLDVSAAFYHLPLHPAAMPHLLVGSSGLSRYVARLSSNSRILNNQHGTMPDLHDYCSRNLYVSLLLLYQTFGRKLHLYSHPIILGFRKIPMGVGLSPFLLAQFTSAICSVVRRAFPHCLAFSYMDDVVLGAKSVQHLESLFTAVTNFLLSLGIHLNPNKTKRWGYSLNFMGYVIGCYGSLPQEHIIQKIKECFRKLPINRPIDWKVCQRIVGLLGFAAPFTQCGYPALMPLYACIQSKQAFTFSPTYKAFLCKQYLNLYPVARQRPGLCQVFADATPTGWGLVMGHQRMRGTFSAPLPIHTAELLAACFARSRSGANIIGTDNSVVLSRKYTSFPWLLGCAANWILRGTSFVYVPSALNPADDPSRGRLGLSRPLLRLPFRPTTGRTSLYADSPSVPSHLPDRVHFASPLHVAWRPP

## CC(=O)OCC(CCn1cnc2cnc(N)nc21)COC(C)=O [FCV, famciclovir]
[1]; of 26 high HBV replicators (HBV more than 90 pg/ml at study entry) treated with FCV pre-OLT
  patients who responded to FCV: 19 patients
[1]; of the initial 26 high HBV replicators treated with FCV pre-OLT
  patients who did not initially respond to FCV: 6 patients
[2]
  inhibition of intra-hepatic replication of duck HBV virus: inhibit
[3]
  effect on HBV DNA replication: reduce HBV DNA replication

## Nc1ncnc2c1ncn2CCOCP(=O)(O)O [Adefovir]
[4]
  anti-HBV activity: effective anti-HBV activity

## Nc1nc2c(ncn2CCC(CO)CO)c(=O)[nH]1 [Penciclovir, penciclovir]
[5]
  inhibitory activity against duck HBV DNA synthesis: potent inhibitory activity
[6]
  inhibition of HBV DNA polymerase-reverse transcriptase activity: inhibit
